Reference: patent US20100166806A1, “Combination therapy comprising the use of protein kinase C modulators and Histone Deacetylase inhibitors for treating HIV-1 latency” (Aphios Corporation, priority 2008, published 2010)
“Also recorded” adds a separate entry of the source.

Key:
[1] = test system: bryostatin-1-induced HIV-1 reactivation in Jurkat-LAT-GFP cells; experiment: Effect of PKC/MEK inhibitors on bryostatin-1-induced GFP expression in Jurkat-LAT-GFP cells; assay type: cell-based; conditions: Jurkat-LAT-GFP cells preincubated with inhibitor, then bryostatin-1 (10 nM) 6 h
Method: The primary interest in Bryostatins has been initiated by recognition of the potent antiproliferative effects against various tumour cells. Such effects have been related to the ability of Bryo-1 to modulate protein kinase C (PKC) activity by activating or degrading certain isoforms of PKC. Since PKC activation mediates different signal pathways that in turn activate the transcription of latent HIV-1, we preincubated Jurkat-LAT-GFP cells with medium or the chemical inhibitors Gö6976 (classical PKCs inhibitor), Gö66850 (classical and novel PKCs inhibitor), Gö6983 (pan-PKC inhibitor), rottlerin (PKCδ inhibitor) and PD98059 (MEK inhibitor) at effective concentrations.
Jurkat LAT-GFP cells were pretreated with the indicated inhibitors for 30 min at the indicated dose, and then stimulated with bryostatin-1 (10 nM) for 6 h. The percentage of GFP+ cells was measured by flow cytometry. Results, shown in FIG. 9, are represented as percentage of activation compared to cells treated with agonists in the absence of the chemical inhibitors (100% activation). The chemical inhibitors Gö6976 (classical PKCs inhibitor), Gö6850 (classical and novel PKCs inhibitor), Gö6983 (pan-PKC inhibitor), rottlerin (PKCδ inhibitor) and PD98059 (MEK inhibitor) were used at the indicated concentrations.

[2] = test system: HIV-1 latency in Jurkat-LAT-GFP cells; experiment: HIV-1 reactivation in Jurkat-LAT-GFP cells (percentage of GFP+ cells by flow cytometry); assay type: cell-based; conditions: for HIV-1 reactivation: 10 nM
[3] = test system: CXCR4; experiment: Cell surface expression of CXCR4 on MT-2 cells by flow cytometry; assay type: cell-based, human
Method: (§1) This effect, shown in FIG. 12, is mediated though a PKC-dependent pathway and is not affected by the presence of VPA. MT-2 cells were treated with 10 nM of bryostatin in the presence or absence of either the PKC inhibitor Gö6850 or the HDAC inhibitor VPA for 24 h and the expression of CD4 and CXCR4 analysed. Cell surface expression of CD4 and CXCR4 antigens were measured by direct fluorescence using specific mAbs and analyzed by flow cytometry in an EPIC XL flow cytometer (Beckman-Coulter Inc. CA, USA). The anti-CXCR4 (clone 12G5, PE-labeled) was from BD Biosciences Pharmigen (San Diego, Calif., USA). The mAb anti-CD4 (clone 6D10, FITC-labelled) was from ImmunoTools (Friesoythe, Del.). Dual-Color Reagent Mouse IgG1/FITC+ Mouse IgG1/PE from DAKO (clone DAK-GO1 directed towards Aspergillus niger glucose oxidase) was used as negative control.

[4] = test system: HIV-1 latent infected cells; conditions: three of four patients; VPA 500-750 mg twice a day; cited from earlier work
[5] = test system: CD4; experiment: Cell surface expression of CD4 on MT-2 cells by flow cytometry; assay type: cell-based, human
Method: as §1

[6] = test system: IκBα; experiment: Western blot of IκBα phosphorylation and degradation (NF-κB pathway) in Jurkat-LAT-GFP cells; assay type: cell-based
Method: (§2) Jurkat-LAT-GFP cells were stimulated with increasing concentrations of bryostatin-1 and the phosphorylation and degradation of the NF-κB inhibitor Iκbα, and the phosphorylation (activation) of the MAPKs, ERK and JNK, were investigated by western blots using specific mAbs.
(§3) Jurkat LAT-GFP cells were incubated with either bryostatin-1 (1, 10, 25, 50 and 100 nM) or with prostratin (0.01, 0.05, 0.1, 0.5, 1 and 10 μM) for 10 min. IκBα phosphorylation and degradation, the phosphorylation status of MAPKs ERK 1+2 and JNK 1+2, and the steady state levels of total ERK 1+2 were analyzed using specific antibodies by western blots. Control and treated cells were washed with PBS and proteins extracted in 50 μl of lysis buffer (20 mM Hepes pH 8.0, 10 mM KCl, 0.15 mM EGTA, 0.15 mM EDTA, 0.5 mM Na3VO4, 5 mM NaFl, 1 mM DTT, leupeptin 1 μg/ml, pepstatin 0.5 μg/ml, aprotinin 0.5 μg/ml, and 1 mM PMSF) containing 0.5% NP-40. Protein concentration was determined by the Bradford assay (Bio-Rad, Richmond, Calif., USA) and thirty μg of proteins were boiled in Laemmli buffer and electrophoresed in 10% SDS/polyacrylamide gels. Separated proteins were transferred to nitrocellulose membranes (0.5 A at 100 V; 4° C.) for 1 h. […]

[7] = test system: HIVIIIB variant of HIV-1; experiment: Virus-induced cytotoxicity assay (HIV-1-induced cell death in CEM-SS cells, XTT); assay type: cell-based
Method: The human T-lymphoblastic cell line CEM-SS was used as the target cell line and virus infections were performed using the HIVIIIB variant of HIV-1 (FIG. 13). Briefly, increasing concentrations of bryostatins (1, 2, 3 and AB) or 3TC (a known inhibitor of HIV RT) were incubated with 5,000 CEM-SS cells and HIVIIIB in a final volume of 200 μl/well at 37° C. for 6 days. After 6 days, 50 μl/well of XTT dye was added and the plate incubated for 4 hours at 37° C. The plate was then read at 450 nm with a reference at 630 nm and the percent CPE, percent inhibition, percent toxicity, effective concentration 50 (EC50), cytotoxic concentration (CC50) and the selective index (CC50/EC50) were calculated. Plates contained the following controls: media, cellular and viral.

[8] = cited from earlier work
[9] = test system: MAPKs ERK1+2 and JNK1+2; experiment: Western blot of phosphorylation (activation) of MAPKs ERK and JNK in Jurkat-LAT-GFP cells; assay type: cell-based
Method: as §2, §3

[10] = MT-2 cells, 10 nM bryostatin, 24 h
[11] = increasing concentrations of bryostatin-1

CN(C)CCCn1cc(C2=C(c3c[nH]c4ccccc34)C(=O)NC2=O)c2ccccc21 [Gö6850]
Inhibition of GFP expression induced by Bryostatin-1 [1]: strongly inhibited

Cn1c2ccccc2c2c3c(c4c5ccccc5n(CCC#N)c4c21)CNC3=O [Gö6976]
Inhibition of GFP expression induced by Bryostatin-1 [1]: strongly inhibited

COc1ccc2c(c1)c(C1=C(c3c[nH]c4ccccc34)C(=O)NC1=O)cn2CCCN(C)C [Gö6983]
Inhibition of GFP expression induced by Bryostatin-1 [1]: strongly inhibited

COc1cccc(-c2cc(=O)c3ccccc3o2)c1N [PD98059]
Inhibition of GFP expression induced by Bryostatin-1 [1]: partially inhibited

CC(/C=C/C(=O)NO)=C\[C@@H](C)C(=O)c1ccc(N(C)C)cc1 [TSA, trichostatin A, reference compound]
Synergy with bryostatin-1 to antagonise HIV-1 latency [2]: synergises

CCCC(CCC)C(=O)O [Valproic acid, valproic acid, reference compound]
Effect of VPA on bryostatin-induced CXCR4 downregulation [3, 10]: not affected
Depletion of HIV-1 latent infected cells in patients [4]: significant depletion
Effect of VPA on bryostatin-induced CD4 downregulation [5, 10]: not affected
Synergy with bryostatin-1 to antagonise HIV-1 latency [2]: synergises

CCC/C=C/C=C/C(=O)O[C@H]1/C(=C/C(=O)OC)C[C@H]2C[C@H]([C@@H](C)O)OC(=O)C[C@H](O)C[C@@H]3C[C@H](OC(C)=O)C(C)(C)[C@](O)(C[C@@H]4C/C(=C/C(=O)OC)C[C@H](/C=C/C(C)(C)[C@]1(O)O2)O4)O3 [bryostatin-1]
IκBα phosphorylation and degradation ([6]; 10 nM): does not induce
Phosphorylation and degradation of IκBα [6, 11]: induced phosphorylation and degradation
Expression of HIV-1 receptor CXCR4 ([3]; 10 nM): downregulates
EC50 [7]: 0.026 µM
Expression of HIV-1 receptor CD4 ([5]; 10 nM): downregulates
HIV-1 reactivation in the presence of valproic acid [2]: can induce HIV-1 reactivation
HIV-1 reactivation ([2]; Jurkat-LAT-GFP cells): strongly induce HIV-1 reactivation; also recorded: fully reactivates HIV-1 latency
Potency to antagonize HIV-1 latency relative to prostratin ([2]; Jurkat-LAT-GFP cells, 6 h, versus prostratin): 100 Fold
HIV-1 reactivation (GFP+ cells) ([2]; bryostatin-1 100 nM, Jurkat-LAT-GFP cells): 87 % of GFP+ cells
Reduction of the bryostatin-1 concentration allowed by HDACs inhibitors ([2]; in combination with HDACs inhibitors): at least one order of magnitude
Tissue accumulation after i.v. injection [8]: accumulated in several tissues including lymph nodes and the gastrointestinal tract
JNK activation ([9]; 10 nM): does not induce
Activation of the MAPKs ERK1+2 and JNK1+2 [9, 11]: in a concentration dependent manner

CCC/C=C/C=C/C(=O)O[C@H]1[C@H]2C=C3C[C@H]([C@@H](C)O)OC(=O)C[C@H](O)C[C@@H]4C[C@H](OC(C)=O)C(C)(C)[C@](O)(C[C@@H]5C/C(=C\C(=O)OC)C[C@H](/C=C/C(C)(C)[C@]1(OC(=O)C2)O3)O5)O4 [bryostatin-3]
HIV-1 reactivation ([2]; Jurkat-LAT-GFP cells): strongly induce HIV-1 reactivation

CC(=O)c1c(O)c(C)c(O)c(Cc2c(O)c3c(c(C(=O)/C=C/c4ccccc4)c2O)OC(C)(C)C=C3)c1O [rottlerin]
Inhibition of GFP expression induced by Bryostatin-1 [1]: did not affect

bryostatin-2
HIV-1 reactivation ([2]; Jurkat-LAT-GFP cells): strongly induce HIV-1 reactivation
